# According to ChEMBL document CHEMBL2069287, “Salidroside protects human erythrocytes against hydrogen peroxide-induced apoptosis” (J Nat Prod, 2012):
# Calls of active or inactive are those of the source. No cut-off for these calls is given here.
# What was measured:
# Erythrocyte [1] = assay: Cytoprotective activity against H202-induced eryptosis in human erythrocytes assessed as very early apoptotic cells at 100 uM after 24 hrs by PE-annexinV/calcein flow cytometric assay (reference value: 27.15%); assay type: functional
# Erythrocyte [2] = assay: Cytoprotective activity against H202-induced apoptosis in human erythrocytes assessed as decrease in phosphatidylserine externalization after 24 hrs by PE-annexinV/Fluor4 flow cytometric analysis; assay type: functional, cell-based
# Erythrocyte [3] = assay: Cytoprotective activity against H202-induced eryptosis in human erythrocytes assessed as viable cells at 300 uM after 24 hrs by PE-annexinV/calcein flow cytometric assay (reference value: 63.38%); assay type: functional; conditions: read-out: Activity
# [4] = Toxicity in human erythrocytes assessed as hemolysis up to 400 uM after 24 hrs by spectrophotometry; assay type: cell-based; conditions: erythrocyte
# Erythrocyte [5] = assay: Cytoprotective activity in human erythrocytes assessed as decrease in caspase-3-mediated FAM-DEVD-FMK cleavage at 300 uM after 24 hrs by fluorometric assay (reference value: 0.28%); assay type: functional; design: scale not given: the % may be the effect or the level left
# Erythrocyte [6] = assay: Cytoprotective activity against H202-induced eryptosis in human erythrocytes assessed as late apoptotic cells at 100 uM after 24 hrs by PE-annexinV/calcein flow cytometric assay (reference value: 0.13%); assay type: functional
# [7] = Induction of eryptosis in human erythrocytes assessed as late apoptotic cells at 100 uM after 24 hrs by PE-annexinV/calcein flow cytometric assay (reference value: 0%); assay type: cell-based; conditions: erythrocyte
# Erythrocyte [8] = assay: Antioxidant activity in human erythrocytes assessed as decrease in H202-induced ROS production after 24 hrs by DCF-based flow cytometric analysis; assay type: functional, cell-based
# Erythrocyte [9] = assay: Cytoprotective activity in human erythrocytes assessed as protection against H202-induced hemolysis at 50 to 100 uM from 2 to 24 hrs by spectrophotometry; assay type: functional, cell-based
# Erythrocyte [10] = assay: Cytoprotective activity against H202-induced eryptosis in human erythrocytes assessed as early apoptotic cells at 300 uM after 24 hrs by PE-annexinV/calcein flow cytometric assay (reference value: 9.34%); assay type: functional
# Erythrocyte [11] = assay: Cytoprotective activity in human erythrocytes assessed as protection against H202-induced hemolysis from 2 to 24 hrs by spectrophotometry; assay type: functional, cell-based
# [12] = Antioxidant activity in human erythrocytes assessed as decrease in H202-induced ROS production at 100 uM after 24 hrs by DCF-based flow cytometric analysis (reference value: 68.32%); assay type: functional, Erythrocyte; design: scale not given: the % may be the effect or the level left
# Erythrocyte [13] = assay: Cytoprotective activity in human erythrocytes assessed as decrease in H202-induced caspase-3-mediated FAM-DEVD-FMK cleavage at 100 uM after 24 hrs by fluorometric assay (reference value: 51.22%); assay type: functional; design: scale not given: the % may be the effect or the level left
# [14] = Antioxidant activity in human erythrocytes assessed as decrease in H202-induced ROS production at 300 uM after 24 hrs by DCF-based flow cytometric analysis (reference value: 68.32%); assay type: functional, Erythrocyte; design: scale not given: the % may be the effect or the level left
# Erythrocyte [15] = assay: Cytoprotective activity in human erythrocytes assessed as decrease in STS-mediated caspase3 activation at 300 uM after 24 hrs by fluorimetric assay (reference value: 58.78%); assay type: functional; design: scale not given: the % may be the effect or the level left
# [16] = Induction of eryptosis in human erythrocytes assessed as very early apoptotic cells at 300 uM after 24 hrs by PE-annexinV/calcein flow cytometric assay (reference value: 0.2%); assay type: cell-based; conditions: erythrocyte
# Erythrocyte [17] = assay: Cytoprotective activity against H202-induced eryptosis in human erythrocytes assessed as early apoptotic cells at 100 uM after 24 hrs by PE-annexinV/calcein flow cytometric assay (reference value: 9.34%); assay type: functional
# [18] = Induction of eryptosis in human erythrocytes assessed as very early apoptotic cells at 100 uM after 24 hrs by PE-annexinV/calcein flow cytometric assay (reference value: 0.2%); assay type: cell-based; conditions: erythrocyte
# Erythrocyte [19] = assay: Cytoprotective activity in human erythrocytes assessed as decrease in H202-induced caspase-3-mediated FAM-DEVD-FMK cleavage after 24 hrs by fluorometric assay; assay type: functional, cell-based
# [20] = Induction of eryptosis in human erythrocytes assessed as late apoptotic cells at 300 uM after 24 hrs by PE-annexinV/calcein flow cytometric assay (reference value: 0%); assay type: cell-based; conditions: erythrocyte
# [21] = Induction of eryptosis in human erythrocytes assessed as early apoptotic cells at 100 uM after 24 hrs by PE-annexinV/calcein flow cytometric assay (reference value: 2.59%); assay type: cell-based; conditions: erythrocyte
# Erythrocyte [22] = assay: Cytoprotective activity in human erythrocytes assessed as decrease in caspase-3-mediated FAM-DEVD-FMK cleavage at 100 uM after 24 hrs by fluorometric assay (reference value: 0.28%); assay type: functional; design: scale not given: the % may be the effect or the level left
# [23] = Induction of eryptosis in human erythrocytes assessed as viable cells at 100 uM after 24 hrs by PE-annexinV/calcein flow cytometric assay (reference value: 97.21%); assay type: cell-based, Erythrocyte; conditions: read-out: Activity
# Erythrocyte [24] = assay: Cytoprotective activity in human erythrocytes assessed as decrease in ionomycin-induced cytosolic free calcium level at 100 uM after 24 hrs by Fluo4 staining-based assay (reference value: 1.76%); assay type: functional; design: scale not given: the % may be the effect or the level left
# Erythrocyte [25] = assay: Cytoprotective activity against H202-induced apoptosis in human erythrocytes assessed as decrease in cytosolic free calcium level after 24 hrs by PE-annexinV/Fluor4 flow cytometric analysis; assay type: functional, cell-based
# Erythrocyte [26] = assay: Cytoprotective activity against H202-induced eryptosis in human erythrocytes assessed as late apoptotic cells at 300 uM after 24 hrs by PE-annexinV/calcein flow cytometric assay (reference value: 0.13%); assay type: functional
# Erythrocyte [27] = assay: Cytoprotective activity in human erythrocytes assessed as decrease in H202-induced caspase-3-mediated FAM-DEVD-FMK cleavage at 300 uM after 24 hrs by fluorometric assay (reference value: 51.22%); assay type: functional; design: scale not given: the % may be the effect or the level left
# Erythrocyte [28] = assay: Cytoprotective activity in human erythrocytes assessed as decrease in ionomycin-induced cytosolic free calcium level at 300 uM after 24 hrs by Fluo4 staining-based assay (reference value: 57.79%); assay type: functional; design: scale not given: the % may be the effect or the level left
# [29] = Induction of eryptosis in human erythrocytes assessed as early apoptotic cells at 300 uM after 24 hrs by PE-annexinV/calcein flow cytometric assay (reference value: 2.59%); assay type: cell-based; conditions: erythrocyte
# [30] = Toxicity in human erythrocytes assessed as hemolysis up to 800 uM after 2 hrs by spectrophotometry; assay type: cell-based; conditions: erythrocyte
# Erythrocyte [31] = assay: Cytoprotective activity against H202-induced eryptosis in human erythrocytes assessed as very early apoptotic cells at 300 uM after 24 hrs by PE-annexinV/calcein flow cytometric assay (reference value: 27.15%); assay type: functional
# [32] = Induction of eryptosis in human erythrocytes assessed as viable cells at 300 uM after 24 hrs by PE-annexinV/calcein flow cytometric assay (reference value: 97.21%); assay type: cell-based, Erythrocyte; conditions: read-out: Activity
# Erythrocyte [33] = assay: Cytoprotective activity in human erythrocytes assessed as decrease in STS-mediated caspase3 activation at 100 uM after 24 hrs by fluorimetric assay (reference value: 58.78%); assay type: functional; design: scale not given: the % may be the effect or the level left
# Erythrocyte [34] = assay: Cytoprotective activity against H202-induced eryptosis in human erythrocytes assessed as viable cells at 100 uM after 24 hrs by PE-annexinV/calcein flow cytometric assay (reference value: 63.38%); assay type: functional; conditions: read-out: Activity
structure (smiles),measurement,setting,value
OC[C@H]1O[C@@H](OCCc2ccc(O)cc2)[C@H](O)[C@@H](O)[C@@H]1O [SALIDROSIDE],Activity,Erythrocyte [1],17.01%
same,Activity,Erythrocyte [2],Dose-dependent effect
same,viability at 300 µM,Erythrocyte [3],74.7%
same,Activity,[4],Non-toxic
same,Activity,Erythrocyte [5],0.22%
same,Activity,Erythrocyte [6],0.18%
same,Activity,[7],0%
same,Activity,Erythrocyte [8],Dose-dependent effect
same,Activity,Erythrocyte [9],Active
same,Activity,Erythrocyte [10],11.08%
same,Activity,Erythrocyte [11],Dose-dependent effect
same,Activity,[12],58.82%
same,Activity,Erythrocyte [13],42.12%
same,Activity,[14],51.39%
same,Activity,Erythrocyte [15],47.16%
same,Activity,[16],0.04%
same,Activity,Erythrocyte [17],12.38%
same,Activity,[18],0.14%
same,Activity,Erythrocyte [19],Dose-dependent effect
same,Activity,[20],0%
same,Activity,[21],2.38%
same,Activity,Erythrocyte [22],0.23%
same,"viability at 24 h, 100 µM",[23],97.5%
same,Activity,Erythrocyte [24],48.77%
same,Activity,Erythrocyte [25],Dose-dependent effect
same,Activity,Erythrocyte [26],0.11%
same,Activity,Erythrocyte [27],37.71%
same,Activity,Erythrocyte [28],46.24%
same,Activity,[29],2.46%
same,Activity,[30],Non-toxic
same,Activity,Erythrocyte [31],14.16%
same,"viability at 24 h, 300 µM",[32],97.5%
same,Activity,Erythrocyte [33],49.38%
same,viability at 100 µM,Erythrocyte [34],70.4%
